Key:
Type in all cases: cell-based, human
24335 cells = assay: Differentiation and proliferation of ZNF532-NUT+ 24335 NMC cells (involucrin/keratin expression, H&E); settings: BET inhibitor treatment
Method: FIGS. 8A-8B describe experimental data showing differentiation of ZNF532-NUT+24335 cells in response to NUT knockdown or BET inhibitor.
(FIG. 10A) Immunoblot of involucrin expression, a marker of squamous differentiation. (FIG. 10B) H&E showing differentiation as evidenced by formation of cohesive spherical clusters, and marked accumulation of cytoplasm. (FIG. 10C) 500 nM JQ1 BET inhibitor was administered. Dose-response to JQ1 measured by cell titer glo. (FIG. 10D) Effects of ZNF532 and NUT knock down on number of mitoses quantified by immunohistochemistry using anti-histone H3phospho-serine antibody.
The importance of ZNF532 in NMC was underscored by simultaneous discovery of a patient with pulmonary NMC (FIG. 5A) harboring a ZNF532-NUT fusion gene, that was identified by whole transcriptome RNAsequencing (FIG. 5B), and confirmed by cytogenetics, fluorescence in situ hybridization (FISH), RT-PCR, western blotting, and immunofluorescence (FIGS. 5C-5F, 6). The fusion gene is comprised of exon 3 of ZNF532 fused to intron 1 of NUT (FIG. 7). The resulting predicted 1500 amino acid protein includes the N-terminal 778 amino acids of ZNF532, encoding only the first two of eleven zinc fingers and a large unstructured domain, part of intron 1 of NUT, and its remaining exons 2-7 (FIGS. 8A-8B). […]

ZNF532 locus = assay: Nascent RNA-seq of transcription at the ZNF532 locus in NMC cell lines; settings: NMC cell lines 797 and 1015, in the presence of JQ1
Excerpt: Transcription is seen in two of the NMC cell lines, 797 and 1015, and is shown to diminish in the presence of JQ1.

PVT1 RNA = assay: RNA-seq at the MYC locus (PVT1 lncRNA) in 24335 cells; settings: JQ1 administered for 4 h prior to RNA collection
Method: (FIG. 11A) Localization of ZNF532-NUT and effects on transcription at the MYC locus based on ChIP-seq and RNA-seq. JQ1 was administered for 4 h prior to RNA collection.
Morphologic differentiation is evidenced by accumulation of abundant cytoplasm, enlargement of nuclei and cytoplasm, and formation of cohesive spheres. […] It has been shown that an important function of ZNF532-NUT is to maintain expression of MYC. […] One such megadomain occupies a region proximal to MYC (FIG. 11A). […] Consistent with its role in MYC upregulation, knockdown of ZNF532-NUT leads to decreased MYC protein levels (FIG. 11B).

Cc1sc2c(c1C)C(c1ccc(Cl)cc1)=N[C@@H](CC(=O)OC(C)(C)C)c1nnc(C)n1-2 [JQ1, (S)-tert-butyl 2-(4-(4-chlorophenyl)-2,3,9-trimethyl-6H-thieno[3,2-f][1,2,4]triazolo[4,3-a][1,4]diazepin-6-yl)acetate]
differentiation of 24335 cells (expression of involucrin, marker of terminal squamous differentiation) (24335 cells): results in differentiation | transcription at the ZNF532 locus (ZNF532 locus): diminish | expression of the PVT1 RNA (PVT1 RNA): decreased expression

Source: patent publication US20180346988A1, “ZNF532 FOR DIAGNOSIS AND TREATMENT OF CANCER” (THE BRIGHAM AND WOMEN'S HOSPITAL, INC., priority 2015, published 2018)
